Experimental data as given in patent US5145783A, “Glyphosate-tolerant 5-endolpyruvyl-3-phosphoshikimate synthase” (Monsanto Company, priority 1990, dated 1992).
pIC50: −log10 of the molar value. “Also recorded” adds a separate entry of the source.

How the values were obtained:
[1] = test system: Brassica napus calli transformed with pMON600; assay: Growth of pMON600-transformed calli on glyphosate; format: cell-based; conditions: 0.5 mM glyphosate, three gentamicin resistant calli
[2] = test system: petunia plants transformed with chimeric EPSP synthase gene (pMON546); assay: Plant response to glyphosate spraying, transformed plants; format: in vivo; conditions: 0.8 #/acre acid equivalent, isopropylamine salt sprayed
Description: Four individual representative transgenic seedlings were selected, grown and tested in the testing procedure described below, along with four individual non-transformed (wild-type) petunia seedlings.
The plants were grown in a growth medium in a growth chamber at 26° C. with 12 hours of light per day. The plants were fertilized weekly with a soluble fertilizer and watered as needed. The plants were sprayed at a uniform and reproducible delivery rate of herbicide by use of an automated track sprayer. The glyphosate solution used was measured as pounds of glyphosate acid equivalents per acre, mixed as the glyphosate isopropylamine salt, with an ionic surfactant.
Four individual wild-type (non-transformed) petunia plants were selected for use as control plants. Four individual transformed plants containing the pMON546 vector were selected by kanamycin resistance as described in Horsch et al. (1985).
The control plants and the transformed plants were sprayed with the isopropylamine salt of glyphosate at the application level listed in Table 2 below; the experimental results obtained are also summarized in Table 2.

[3] = biological target: petunia EPSP synthase with alanine for the first glycine of the conserved region (Petunia hybrida, UniProt P11043, G170A); assay: Glyphosate sensitivity of petunia EPSP synthase with alanine for the first glycine of the conserved region; format: biochemical; conditions: alanine inserted for the first glycine of the conserved region
petunia EPSP synthase with alanine for the first glycine of the conserved region, sequence (P11043 73-516 G170A): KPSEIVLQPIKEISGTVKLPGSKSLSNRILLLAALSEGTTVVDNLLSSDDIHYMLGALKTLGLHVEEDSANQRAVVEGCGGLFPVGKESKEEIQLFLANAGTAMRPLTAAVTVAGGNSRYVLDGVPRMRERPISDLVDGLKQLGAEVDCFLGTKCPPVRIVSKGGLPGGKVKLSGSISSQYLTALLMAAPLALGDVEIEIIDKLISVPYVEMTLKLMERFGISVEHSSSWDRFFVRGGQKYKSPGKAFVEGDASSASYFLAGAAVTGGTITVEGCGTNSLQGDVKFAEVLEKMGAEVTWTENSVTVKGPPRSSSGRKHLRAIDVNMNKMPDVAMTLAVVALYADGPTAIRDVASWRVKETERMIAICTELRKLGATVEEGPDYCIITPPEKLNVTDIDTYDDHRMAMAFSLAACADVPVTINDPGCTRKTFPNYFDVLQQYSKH
From the text: The EPSP synthase sequences shown in FIG. 2 represent a broad evolutionary range of source materials for EPSP synthases. […] However, those skilled in the art will recognize that a particular EPSP synthase may be produced by and isolated from another source material which may not have the exact sequence of the conserved region.

[4] = biological target: T1, glyphosate-tolerant petunia EPSP synthase (alanine for glycine at position 101) (Petunia hybrida, UniProt P11043, G173A); assay: EPSP synthase inhibition, petunia enzyme carrying the alanine for glycine substitution; format: biochemical
T1 construct: made in house; host or cells: E. coli (overproducing), extract
T1 sequence (P11043 73-516 G173A): as the sequence (P11043 73-516 G170A) above, with A98G, G101A counted along it
From the text: (§1) The EPSP synthase in the extracts was further characterized by titrating the resistance to glyphosate.

[5] = test system: tobacco plants transformed with glyphosate-tolerant petunia EPSP synthase gene (pMON567); assay: Relative effect of glyphosate spray on transformed tobacco, glyphosate-tolerant gene; format: in vivo, Nicotiana tabacam CV H425; design: key: 0 = total kill, 10 = normal unsprayed plant; conditions: GT
From the text: A culture of A. tumefaciens cells containing pMON567/pGV3111-SE was contacted with leaf disks taken from tobacco plants (Nicotiana tabacam CV H425) as described by Horsch (1985). The Agrobacterium cells inserted the mutant EPSP synthase gene into the chromosomes of the plant cells. Plant cells resistant to kanamycin were selected and regenerated into differentiated plants by the procedure of Horsch (1985).
Progeny of these plants were propagated and grown to a rosette diameter of about 10 cm corresponding to a plant age of about four weeks. […] […] The effect was translated to a numerical scale of 0-10 in which 0 represents total kill and 10 is the normal, unsprayed plant. […] The values represent the best transformant for both wild-type EPSP synthase and glyphosate-tolerant EPSP synthase genes.

[6] = test system: control petunia leaf disks (pMON505); assay: Callus growth of petunia leaf disks on glyphosate media, control vector pMON505; format: cell-based
Description: Leaf disks with diameters of 6 mm (1/4 inch) were taken from surface-sterilized petunia leaves. They were cultivated on MS104 agar medium for 2 days to promote partial cell wall formation at the wound surfaces. They were then submerged in a culture of A. tumefaciens cells containing both pMON546 and GV3111-SE which had been grown overnight in Luria broth at 28° C., and shaken gently. The cells were removed from the bacterial suspension, blotted dry, and incubated upside down on filter paper placed over "nurse" cultures of tobacco cells, as described in Horsch (1980). After 2 or 3 days, the disks were transferred to petri dishes containing MS media with 500 μg/ml carbenicillin and 0., 0.1, 0.25, or 0.5 mM glyphosate (sodium salt), with no nurse cultures.
Control tissue was created using A. tumefaciens cells containing the helper plasmid pGV3111-SE and a different plant transformation vector, pMON505, which contained a T-DNA region with a NOS/NPTII/NOS kanamycin resistance gene and a NOS selectable marker gene identical to pMON546, but without the CaMV35S/EPSP synthase gene.
Within 10 days after transfer to the media containing glyphosate, actively growing callus tissue appeared on the periphery of all disks on the control plate containing no glyphosate. […] This confirms that the CaMV35S/EPSP synthase gene conferred glyphosate resistance upon the transformed cells.

[7] = biological target: T2, Arabidopsis EPSP synthase with the alanine for glycine substitution at position 101 (Arabidopsis thaliana, UniProt P05466, G177A); assay: EPSP synthase activity in protein extracts of Brassica napus calli transformed with pMON600; format: biochemical
T2 construct: the expressed Arabidopsis EPSP synthase would include the alanine for glycine substitution at position 101 of the mature enzyme; expressed in transfected cells; host or cells: Brassica napus calli transformed by Agrobacterium harboring pMON600, protein extract
T2 sequence (P05466 77-520 G177A): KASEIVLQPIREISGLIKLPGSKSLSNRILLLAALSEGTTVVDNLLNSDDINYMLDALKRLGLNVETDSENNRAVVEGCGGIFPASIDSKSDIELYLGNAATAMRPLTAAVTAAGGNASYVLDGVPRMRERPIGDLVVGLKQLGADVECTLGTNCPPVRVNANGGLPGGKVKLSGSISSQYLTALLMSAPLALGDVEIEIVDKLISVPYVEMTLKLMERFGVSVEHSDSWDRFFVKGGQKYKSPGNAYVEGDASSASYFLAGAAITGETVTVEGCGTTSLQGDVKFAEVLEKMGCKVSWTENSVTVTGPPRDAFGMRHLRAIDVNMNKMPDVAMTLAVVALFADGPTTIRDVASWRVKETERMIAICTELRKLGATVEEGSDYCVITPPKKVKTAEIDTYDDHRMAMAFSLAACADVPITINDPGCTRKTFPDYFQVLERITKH
Description: The Agrobacterium harboring the pMON600 plasmid was used to transform explants of Brassica napus. Three gentamicin resistant calli were obtained. […] Proteins were extracted from samples of the calli and were assayed for EPSP synthase activity. All three of the calli contained EPSP synthase activity that was resistant to 0.5 mM glyphosate.
as §1

For O=C(O)CNCP(=O)(O)O [glyphosate, N-phosphonomethylglycine], the “callus growth on glyphosate” value [1] was “capable of growth”, the “Visual Appearance” value [2] was “growing well; also recorded: healthy and viable” and the “change in glyphosate sensitivity versus wild-type petunia EPSP synthase” value [3] was “no attendant changes in glyphosate sensitivity”. The pIC50 [4] was 1.80, the “Relative effect of glyphosate (0 total kill, 10 no effect)” value ([5]; 0.4 Pounds/Acre, Day 7, best transformant) was 8.0 and the “Relative effect of glyphosate (0 total kill, 10 no effect)” value ([5]; 0.4 Pounds/Acre, Day 14, best transformant) was 8.0. For the same compound, the “Relative effect of glyphosate (0 total kill, 10 no effect)” value ([5]; 0.4 Pounds/Acre, Day 28, best transformant) was 9.0, the “Relative effect of glyphosate (0 total kill, 10 no effect)” value ([5]; 2.0 Pounds/Acre, Day 7, best transformant) was 8.0 and the “Relative effect of glyphosate (0 total kill, 10 no effect)” value ([5]; 2.0 Pounds/Acre, Day 14, best transformant) was 8.3. For the same compound, the “Relative effect of glyphosate (0 total kill, 10 no effect)” value ([5]; 2.0 Pounds/Acre, Day 28, best transformant) was 7.0, the “Relative effect of glyphosate (0 total kill, 10 no effect)” value ([5]; 3.6 Pounds/Acre, Day 7, best transformant) was 5.0 and the “Relative effect of glyphosate (0 total kill, 10 no effect)” value ([5]; 3.6 Pounds/Acre, Day 14, best transformant) was 7.4. The “Relative effect of glyphosate (0 total kill, 10 no effect)” value ([5]; 3.6 Pounds/Acre, Day 28, best transformant) was 7.0, the callus growth ([6]; 0.25 mM glyphosate) was “very little growth of callus” and the callus growth ([6]; 0.5 mM glyphosate) was “no callus growth”. For the same compound, the pIC50 [7] was 2.12 and the “EPSP synthase activity in the presence of glyphosate” value ([7]; 0.5 mM glyphosate, all three calli) was “resistant”.
